Data reported in US12351570B2 (MERCK PATENT GMBH, priority 2018, dated 2025).

Each compound was assayed on MDA-MB-231 cells (assay: Extracellular lactate production inhibition after 4 h, MDA-MB-231). Conditions: Homo sapiens, MDA-MB-231.

IC50, 10 to 100 nM:
COC(=O)c1cc(Cl)c(C#Cc2ccccc2NS(=O)(=O)c2c(C)ccc3cccnc23)cn1 [Compound 152, methyl 4-chloro-5-{2-[2-(7-methylquinoline-8-sulfonamido)phenyl]-ethynyl}pyridine-2-carboxylate]
CCOc1ccc2cccnc2c1S(=O)(=O)Nc1ccccc1C#Cc1ccc(C(=O)O)nc1 [Compound 210, 5-{2-[2-(7-ethoxyquinoline-8-sulfonamido)phenyl]ethynyl}pyridine-2-carboxylic acid]
O=C(O)c1ccc(C#Cc2ccccc2NS(=O)(=O)c2cccc3c(Cl)c(Cl)cnc23)cn1 [Compound 298, 5-{2-[2-(3,4-dichloroquinoline-8-sulfonamido)phenyl]ethynyl}pyridine-2-carboxylic acid]
CCOc1cc(C(=O)O)ncc1C#Cc1ccccc1NS(=O)(=O)c1ccc(OC)c2cccnc12 [Compound 176, 4-ethoxy-5-{2-[2-(5-methoxyquinoline-8-sulfonamido)phenyl]ethynyl}pyridine-2-carboxylic acid]
COc1ccc(S(=O)(=O)Nc2ccc(Cl)cc2C#Cc2cnc(C(=O)O)cc2OC)cc1 [Compound 388, 5-[5-Chloro-2-(4-methoxy-benzenesulfonylamino)-phenylethynyl]-4-methoxy-pyridine-2-carboxylic acid]
CNc1cc(C#Cc2cc(Cl)ccc2NS(=O)(=O)c2ccc(OC)c(C)c2C)cnc1C(=O)O [Compound 403, 5-{2-[5-chloro-2-(4-methoxy-2,3-dimethylbenzenesulfonamido)phenyl]ethynyl}-3-(methylamino)pyridine-2-carboxylic acid]
Cc1ccc2cccnc2c1S(=O)(=O)Nc1ccc(Br)cc1C#Cc1cnc(C(=O)O)c2ccccc12 [Compound 233, 4-{2-[5-bromo-2-(7-methylquinoline-8-sulfonamido)phenyl]ethynyl}isoquinoline-1-carboxylic acid]

IC50, 1000 to 100000 nM:
O=C(O)c1ccc(C#Cc2ccccc2NS(=O)(=O)c2ccc(Cl)s2)cn1 [Compound 304, 5-{2-[2-(5-chlorothiophene-2-sulfonamido)phenyl]ethynyl}pyridine-2-carboxylic acid]
O=C(O)c1ccc(C#Cc2ccccc2NS(=O)(=O)c2cc3ccccc3o2)cn1 [Compound 89, 5-{2-[2-(1-benzofuran-2-sulfonamido)phenyl]ethynyl}pyridine-2-carboxylic acid]
O=C(O)c1ccc(C#Cc2c(F)cccc2NS(=O)(=O)c2cccc3cccnc23)cn1 [Compound 101, 5-{2-[2-fluoro-6-(quinoline-8-sulfonamido)phenyl]ethynyl}pyridine-2-carboxylic acid]
CCOc1cc(C#Cc2ccccc2NS(=O)(=O)c2ccc3ccccc3c2)ccc1C(=O)O [Compound 57, 2-ethoxy-4-{2-[2-(naphthalene-2-sulfonamido)phenyl]ethynyl}benzoic acid]
CS(=O)(=Nc1ccccc1C#Cc1ccc(C(=O)O)nc1)c1ccccc1F (stereo not drawn) [Compound 437, 5-[2-(2-{[(2-fluorophenyl)(methyl)oxo-λ6-sulfanylidene]amino}phenyl)ethynyl] pyridine-2-carboxylic acid]

IC50, 100 to 1000 nM:
O=C(O)c1ccc(C#Cc2ccccc2NS(=O)(=O)N2CCC3CCCCC3C2)cn1 (stereo not drawn) [Compound 103, 5-(2-{2-[(decahydroisoquinoline-2-sulfonyl)amino]phenyl}ethynyl)pyridine-2-carboxylic acid]
O=C(O)c1ccc(C#Cc2ccccc2NS(=O)(=O)c2ccc(-n3cccn3)cc2)cn1 [Compound 142, 5-(2-{2-[4-(1H-pyrazol-1-yl)benzenesulfonamido]phenyl}-ethynyl)pyridine-2-carboxylic acid]
COc1cc(C#Cc2ccccc2NS(=O)(=O)c2c(C)ccc3cccnc23)cnc1C(=O)O [Compound 171, 3-methoxy-5-{2-[2-(7-methylquinoline-8-sulfonamido)phenyl]ethynyl}pyridine-2-carboxylic acid]
